Measurements: patent US8778871B2 (Takeda Pharmaceutical Company Limited, priority 2004, dated 2014)
Non-standard residues stand in square brackets, D forms with d. Residues, ends and D or L forms follow the SMILES beside them. No end group written: not given here. *: point of attachment. X9 = CC(C)C[C@H](NCCN*)C(=O)N[C@@H](CCCNC(=N)N)C(=O)N[C@@H](Cc1ccccc1)C(N)=O; Butyryl(4-indol-3-yl) = O=C(CCCc1c[nH]c2ccccc12)*; Arg(Me) = CNC(=N)NCCC[C@H](N)C(=O)O; d3Pal = N[C@H](Cc1cccnc1)C(=O)O; GABA = NCCCC(=O)O; azaGly = NNC(=O)O

Key:
hOT7T175 [1] = biological target: T1, hOT7T175 (Homo sapiens, UniProt Q969F8); assay: Intracellular Ca ion level-increasing activity using FLIPR (180 seconds; specific activity to Metastin (1-54)); assay type: cell-based; settings: hOT7T175/CHO, change in intracellular calcium ion level for 180 seconds, Tables 21-23
T1 construct: expressed in transfected cells
T1 sequence (Q969F8 whole entry L364H): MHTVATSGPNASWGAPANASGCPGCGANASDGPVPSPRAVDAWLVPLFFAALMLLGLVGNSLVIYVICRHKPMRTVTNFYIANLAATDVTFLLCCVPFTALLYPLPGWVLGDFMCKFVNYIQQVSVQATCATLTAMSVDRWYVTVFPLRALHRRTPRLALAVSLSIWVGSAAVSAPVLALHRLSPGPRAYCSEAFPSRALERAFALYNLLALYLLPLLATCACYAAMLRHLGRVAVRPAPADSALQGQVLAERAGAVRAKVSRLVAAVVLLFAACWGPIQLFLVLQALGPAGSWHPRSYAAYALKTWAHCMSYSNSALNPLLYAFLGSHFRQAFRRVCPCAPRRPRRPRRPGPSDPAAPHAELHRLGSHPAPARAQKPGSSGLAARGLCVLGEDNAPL
Description: In accordance with the method described in JPA 2000-312590, the intracellular Ca ion level-increasing activity was measured using FLIPR. […]
The intracellular Ca ion level-increasing activity of the synthetic peptide in hOT7T175/CHO was determined using FLIPR (Molecular Devices, Inc.).
hOT7T175/CHO was subcultured in DMEM supplemented with 10% dialyzed fetal bovine serum (hereinafter abbreviated as dFBS) and provided for the experiment (hereinafter abbreviated as 10% dFBS/DMEM). The hOT7T175/CHO was suspended in 10% dFBS-DMEM in 15×10^4 cells/ml. The suspension was inoculated on a 96-well plate for FLIPR (Black Plate Clear Bottom, Coster, Inc.) at 200 μl each (3.0×10^4 cells/200 μl), followed by incubation at 37° C. overnight in a 5% CO2 incubator. The cells thus incubated were used (hereinafter simply referred to as the cell plate). Then, 21 ml of HANKS/HBSS (9.8 g of HANKS', 0.35 g of sodium hydrogencarbonate, 20 ml of 1M HEPES; after adjusting the pH to 7.4 with 1N sodium hydroxide, the mixture was subjected to sterilization through a filter), 210 μl of […] Probenecid and 210 μl of fetal bovine serum (FBS) were mixed (HANKS/HBSS-Probenecid-FBS).
Furthermore, 2 vials of Fluo3-AM (50 μg/vial) were dissolved in 21 μL of dimethylsulfoxide and 21 μL of 20% Pluronic acid. The resulting solution was added to and mixed with 10 ml of HANKS/HBSS-Probenecid-FBS described above. After the culture medium was removed, the mixture was dispensed onto the cell plate in 100 μl each/well, followed by incubation at 37° C. for an hour in a 5% CO2 incubator (pigment loading). The peptide was dissolved in dimethylsulfoxide in 1×10^−3 M. The peptide solution was diluted with HANKS'/HBSS containing 2.5 mM Probenecid and 0.2% BSA. The dilution was transferred to a 96-well plate for FLIPR (V-Bottom plate, Coster, Inc.) (hereinafter referred to as a sample plate). After completion of the pigment loading onto the cell plate, the cell plate washed 4 times with wash buffer, which was obtained by adding 2.5 mM Probenecid to HANKS'/HBSS, using a plate washer to leave 100 μL of wash buffer after the washing. The cell plate and the sample plate were set in FLIPR and 0.05 ml of a sample from the sample plate was automatically transferred to the cell plate with the FLIPR device to promote the cell response. A change in intracellular calcium ion level for 180 seconds was measured with passage of time.

hOT7T175 [2] = biological target: T2, hOT7T175 (Homo sapiens, UniProt Q969F8, L364H); assay type: cell-based; settings: hOT7T175/CHO, FLIPR, evaluation for 40 seconds after initiation of the reaction
T2 construct: expressed in transfected cells
T2 sequence (Q969F8 whole entry L364H): as above
Description: The intracellular Ca ion level-increasing activity was measured using FLIPR as in TEST EXAMPLE 2.

## 1-Oxo-isochroman-3-carbonyl-AzaGly-Leu-Arg(Me)-Trp-NH2 [Compound No. 408]
hOT7T175 [1]
  intracellular Ca ion level-increasing activity [specific activity to Metastin (1-54)]: ⅓

## 2-(Indol-3-yl)ethylcarbamoyl-Phe-AzaGly-Leu-Arg(Me)-Phe-NH2 [Compound No. 364]
hOT7T175 [1]
  intracellular Ca ion level-increasing activity [specific activity to Metastin (1-54)]: 1

## 2-Azetidinecarbonyl-Phe-AzaGly-Leu-Arg(Me)-Trp-NH2 [Compound No. 466]
hOT7T175 [1]
  intracellular Ca ion level-increasing activity [specific activity to Metastin (1-54)]: ⅓

## 2-Hydroxyisobutyryl-Phe-AzaGly-Leu-Arg(Me)-Trp-NH2 [Compound No. 453]
hOT7T175 [1]
  intracellular Ca ion level-increasing activity [specific activity to Metastin (1-54)]: 1

## 2-Methylnicotinoyl-Phe-AzaGly-Leu-Arg(Me)-Trp-NH2 [Compound No. 443]
hOT7T175 [1]
  intracellular Ca ion level-increasing activity [specific activity to Metastin (1-54)]: ½

## 2-Pyridinecarbonyl-Phe-AzaGly-Leu-Arg(Me)-Trp-NH2 [Compound No. 435]
hOT7T175 [1]
  intracellular Ca ion level-increasing activity [specific activity to Metastin (1-54)]: 10

## 3-(3-Indolyl)propionyl-Phe-Gly-Leu-Arg-Phe-NH2 [Compound No. 352]
hOT7T175 [1]
  intracellular Ca ion level-increasing activity [specific activity to Metastin (1-54)]: ⅓

## 3-(3-Pyridyl)propionyl-Phe-AzaGly-Leu-Arg(Me)-Phe-NH2 [Compound No. 340]
hOT7T175 [1]
  intracellular Ca ion level-increasing activity [specific activity to Metastin (1-54)]: ⅕

## 3-Phenylpropionyl-AzaGly-Leu-Arg(Me)-Phe-NH2 [Compound No. 362]
hOT7T175 [1]
  intracellular Ca ion level-increasing activity [specific activity to Metastin (1-54)]: 1/10

## 3-Pyridinecarbonyl-Phe-AzaGly-Leu-Arg(Me)-Trp-NH2 [Compound No. 432]
hOT7T175 [1]
  intracellular Ca ion level-increasing activity [specific activity to Metastin (1-54)]: 2

## 4-Pyridinecarbonyl-Phe-AzaGly-Leu-Arg(Me)-Nal(2)-NH2 [Compound No. 461]
hOT7T175 [1]
  intracellular Ca ion level-increasing activity [specific activity to Metastin (1-54)]: ⅓

## 4-Pyridinecarbonyl-Phe-AzaGly-Leu-Arg(Me)-Phe-NH2 [Compound No. 471]
hOT7T175 [1]
  intracellular Ca ion level-increasing activity [specific activity to Metastin (1-54)]: 1

## 4-Pyridinecarbonyl-Phe-AzaGly-Leu-Har-Trp-NH2 [Compound No. 478]
hOT7T175 [1]
  intracellular Ca ion level-increasing activity [specific activity to Metastin (1-54)]: ⅓

## 4-Pyridinecarbonyl-Phe-AzaGly-Leu-Orn-Trp-NH2 [Compound No. 477]
hOT7T175 [1]
  intracellular Ca ion level-increasing activity [specific activity to Metastin (1-54)]: ⅕

## 4-Pyridinecarbonyl-Phe-AzaGly-Val-Arg(Me)-Trp-NH2 [Compound No. 460]
hOT7T175 [1]
  intracellular Ca ion level-increasing activity [specific activity to Metastin (1-54)]: ⅓

## 5-Methylnicotinoyl-Phe-AzaGly-Leu-Arg(Me)-Trp-NH2 [Compound No. 444]
hOT7T175 [1]
  intracellular Ca ion level-increasing activity [specific activity to Metastin (1-54)]: ⅓

## 6-Hydroxynicotinoyl-Phe-AzaGly-Leu-Arg(Me)-Trp-NH2 [Compound No. 462]
hOT7T175 [1]
  intracellular Ca ion level-increasing activity [specific activity to Metastin (1-54)]: 1

## CNC(=N)NCCC[C@H](NC(=O)[C@H](CC(C)C)NC(=O)NNC(=O)[C@H](Cc1ccccc1)NC(=O)[C@H](CO)NC(=O)[C@H](CC(N)=O)NC(=O)[C@H](Cc1ccccc1)NC(=O)[C@H](N)Cc1cccnc1)C(=O)N[C@@H](Cc1ccccc1)C(N)=O [Compound No. 256, D-Pya(3)-Phe-Asn-Ser-Phe-AzaGly-Leu-Arg(Me)-Phe-NH2] (H-[d3Pal]FNSF[azaGly]L[Arg(Me)]F-NH2)
hOT7T175 [1]
  intracellular Ca ion level-increasing activity [specific activity to Metastin (1-54)]: 1

## CNC(=N)NCCC[C@H](NC(=O)[C@H](CC(C)C)NC(=O)NNC(=O)[C@H](Cc1ccccc1)NC(=O)[C@H](CO)NC(=O)[C@H](CC(N)=O)NC(=O)[C@H](Cc1ccccc1)NC(=O)[C@@H](CC(N)=O)NC(=O)[C@H](N)Cc1ccc(O)cc1)C(=O)N[C@@H](Cc1ccccc1)C(N)=O [Compound No. 257, D-Tyr-D-Asn-Phe-Asn-Ser-Phe-AzaGly-Leu-Arg(Me)-Phe-NH2] (H-[dY][dN]FNSF[azaGly]L[Arg(Me)]F-NH2)
hOT7T175 [1]
  intracellular Ca ion level-increasing activity [specific activity to Metastin (1-54)]: 3

## CNC(=N)NCCC[C@H](NC(=O)[C@H](CC(C)C)NC(=O)NNC(=O)[C@H](Cc1ccccc1)NC(=O)[C@H](CO)NC(=O)[C@H](CC(N)=O)NC(=O)[C@H](Cc1c[nH]c2ccccc12)NC(=O)[C@H](CC(N)=O)NC(=O)[C@H](N)Cc1cccnc1)C(=O)N[C@@H](Cc1ccccc1)C(N)=O [Compound No. 258, D-Pya(3)-Asn-Trp-Asn-Ser-Phe-AzaGly-Leu-Arg(Me)-Phe-NH2] (H-[d3Pal]NWNSF[azaGly]L[Arg(Me)]F-NH2)
hOT7T175 [1]
  intracellular Ca ion level-increasing activity [specific activity to Metastin (1-54)]: 2

## CNC(=N)NCCC[C@H](NC(=O)[C@H](CC(C)C)NC(=O)NNC(=O)[C@H](Cc1ccccc1)NC(=O)[C@H](CO)NC(=O)[C@H](CC(N)=O)NC(=O)[C@H](Cc1c[nH]c2ccccc12)NC(=O)[C@H](CC(N)=O)NC(=O)[C@@H](C)N)C(=O)N[C@@H](Cc1ccccc1)C(N)=O [Compound No. 259, D-Ala-Asn-Trp-Asn-Ser-Phe-AzaGly-Leu-Arg(Me)-Phe-NH2] (H-[dA]NWNSF[azaGly]L[Arg(Me)]F-NH2)
hOT7T175 [1]
  intracellular Ca ion level-increasing activity [specific activity to Metastin (1-54)]: 1

## CC(C)C[C@H](NCCNC(=O)[C@H](Cc1ccccc1)NC(=O)[C@H](CO)NC(=O)[C@H](CC(N)=O)NC(=O)[C@H](Cc1c[nH]c2ccccc12)NC(=O)[C@H](CC(N)=O)NC(=O)[C@@H](N)Cc1ccc(O)cc1)C(=O)N[C@@H](CCCNC(=N)N)C(=O)N[C@@H](Cc1ccccc1)C(N)=O [Compound No. 261, Tyr-Asn-Trp-Asn-Ser-Phe-GlyΨ(CH2NH)Leu-Arg-Phe-NH2] (H-YNWNSF-X9)
hOT7T175 [1]
  intracellular Ca ion level-increasing activity [specific activity to Metastin (1-54)]: 1

## CNC(=N)NCCC[C@H](NC(=O)[C@H](CC(C)C)NC(=O)NNC(=O)[C@H](Cc1ccccc1)NC(=O)[C@H](CO)NC(=O)[C@H](CC(N)=O)NC(=O)CCCc1c[nH]c2ccccc12)C(=O)N[C@@H](Cc1ccccc1)C(N)=O [Compound No. 267, 4-(3-Indolyl)butyryl-Asn-Ser-Phe-AzaGly-Leu-Arg(Me)-Phe-NH2] ({Butyryl(4-indol-3-yl)}-NSF[azaGly]L[Arg(Me)]F-NH2)
hOT7T175 [1]
  intracellular Ca ion level-increasing activity [specific activity to Metastin (1-54)]: 2

## D-Trp-Asn-Thr-Phe-AzaGly-Leu-Arg(Me)-Trp-NH2 ([dW]NTF[azaGly]L[Arg(Me)]W-NH2; N-terminus assumed; SMILES CNC(=N)NCCC[C@H](NC(=O)[C@H](CC(C)C)NC(=O)NNC(=O)[C@H](Cc1ccccc1)NC(=O)[C@@H](NC(=O)[C@H](CC(N)=O)NC(=O)[C@H](N)Cc1c[nH]c2ccccc12)[C@@H](C)O)C(=O)N[C@@H](Cc1c[nH]c2ccccc12)C(N)=O) [Compound No. 665]
hOT7T175 [2]
  Specific Act. (EC50/MS10 EC50): 1.1

## D-Trp-D-Pya(4)-Asn-Ser-Phe-AzaGly-Leu-Arg(Me)-Trp-NH2 [Compound No. 572]
hOT7T175 [2]
  Specific Act. (EC50/MS10 EC50): 0.7

## D-Tyr-D-Pya(4)-Asn-Hyp-Phe-AzaGly-Leu-Arg(Me)-Trp-NH2 [Compound No. 527]
hOT7T175 [2]
  Specific Act. (EC50/MS10 EC50): 3.3

## D-Tyr-D-Pya(4)-Asn-Phg-Phe-AzaGly-Leu-Arg(Me)-Trp-NH2 [Compound No. 530]
hOT7T175 [2]
  Specific Act. (EC50/MS10 EC50): 3.4

## D-Tyr-D-Pya(4)-Asn-Pro-Phe-AzaGly-Leu-Arg(Me)-Trp-NH2 [Compound No. 528]
hOT7T175 [2]
  Specific Act. (EC50/MS10 EC50): 1.4

## D-Tyr-D-Pya(4)-Asn-Ser-Phe-AzaGly-Leu-Arg-Phe-NH2 [Compound No. 521]
hOT7T175 [2]
  Specific Act. (EC50/MS10 EC50): 2.4

## D-Tyr-D-Pya(4)-Asn-Tle-Phe-AzaGly-Leu-Arg(Me)-Trp-NH2 [Compound No. 529]
hOT7T175 [2]
  Specific Act. (EC50/MS10 EC50): 1.8

## Glycoloyl-D-Trp-Asn-Thr-Phe-AzaGly-Leu-Arg(Me)-Trp-NH2 (Glycoloyl-[dW]NTF[azaGly]L[Arg(Me)]W-NH2) [Compound No. 680]
hOT7T175 [2]
  Specific Act. (EC50/MS10 EC50): 2.5

## Glycoloyl-D-Tyr-D-Trp-Asn-Thr-Phe-AzaGly-Leu-Arg(Me)-Trp-NH2 (Glycoloyl-[dY][dW]NTF[azaGly]L[Arg(Me)]W-NH2) [Compound No. 681]
hOT7T175 [2]
  Specific Act. (EC50/MS10 EC50): 1.2

## Me-D-Tyr-D-Trp-Asn-Thr-Phe-AzaGly-Leu-Arg(Me)-Trp-NH2 [Compound No. 570]
hOT7T175 [2]
  Specific Act. (EC50/MS10 EC50): 0.5

## Phenylacetyl-Asn-Ser-Phe-AzaGly-Leu-Arg(Me)-Trp-NH2 [Compound No. 519]
hOT7T175 [2]
  Specific Act. (EC50/MS10 EC50): 2.4

## [dR][dR][GABA][dY][dW]NTF[azaGly]L[Arg(Me)]W-NH2 [Compound No. 556]
hOT7T175 [2]
  Specific Act. (EC50/MS10 EC50): 2.8

## [dR][dR][dR][GABA][dY][dW]NTF[azaGly]L[Arg(Me)]W-NH2 [Compound No. 557]
hOT7T175 [2]
  Specific Act. (EC50/MS10 EC50): 3.2

## [dY][dW]NVF[azaGly]L[Arg(Me)]W-NH2 [Compound No. 539]
hOT7T175 [2]
  Specific Act. (EC50/MS10 EC50): 1.2
